Experimental data: PMC9516332 (Frontiers in Oncology, 2022)
Read-outs that look alike come from different tables or passages of the source.

Columns and labels:
AP-1060 (ETV6-NTRK3) = assay: Cell viability assay
134 cancer cell lines = assay: Cell viability assay (ATPlite, 72 hours), IC50 on cancer cell line panel

With `CO[C@]1(C(=O)N[C@@H](C)c2ccc(-n3cc(F)cn3)nc2)CC[C@H](c2nc(C)cc(Nc3cc(C)[nH]n3)n2)CC1` [pralsetinib] the “higher sensitivity of AP-1060 to pralsetinib compared to selpercatinib” value (AP-1060 (ETV6-NTRK3); cell viability) was roughly 20 fold, the IC50 (AP-1060 (ETV6-NTRK3); read-out: IC50 in cell proliferation assay) was 0.206 µM and the IC50 (134 cancer cell lines; HEC-6, read-out: IC50 in cell proliferation assay, HEC-6 cell line (EGFR p.A289V)) was 16.9 µM. The IC50 (134 cancer cell lines; Homo sapiens, 769-P, read-out: IC50 in cell proliferation assay, cell line 769-P) was 3.15 µM, the IC50 (134 cancer cell lines; Homo sapiens, 786-0, read-out: IC50 in cell proliferation assay, cell line 786-O) was 3.96 µM and the IC50 (134 cancer cell lines; Homo sapiens, A 172, read-out: IC50 in cell proliferation assay, cell line A-172) was 0.758 µM. It also gave an IC50 (134 cancer cell lines; Homo sapiens, A204, read-out: IC50 in cell proliferation assay, cell line A-204) of 0.679 µM, an IC50 (134 cancer cell lines; Homo sapiens, A498, read-out: IC50 in cell proliferation assay, cell line A-498) of 8.94 µM and an IC50 (134 cancer cell lines; Homo sapiens, A549, read-out: IC50 in cell proliferation assay, cell line A-549) of 8.17 µM. The IC50 (134 cancer cell lines; Homo sapiens, A704, read-out: IC50 in cell proliferation assay, cell line A-704) was 2.49 µM, the IC50 (134 cancer cell lines; Homo sapiens, A-375, read-out: IC50 in cell proliferation assay, cell line A-375 (BRAF p.V600E)) was 12.1 µM and the IC50 (134 cancer cell lines; Homo sapiens, A-427, read-out: IC50 in cell proliferation assay, cell line A-427) was 1.1 µM. For the same compound, the IC50 (134 cancer cell lines; Homo sapiens, ACHN, read-out: IC50 in cell proliferation assay, cell line ACHN) was 2.08 µM, the IC50 (134 cancer cell lines; Homo sapiens, AN3-CA, read-out: IC50 in cell proliferation assay, cell line AN3-CA (FGFR2 p.N549K)) was 0.9 µM and the IC50 (134 cancer cell lines; Homo sapiens, ASPC1, read-out: IC50 in cell proliferation assay, cell line AsPC-1) was 25.9 µM. The IC50 (134 cancer cell lines; Homo sapiens, AU565, read-out: IC50 in cell proliferation assay, cell line AU565 (ERBB2 amplification)) was 8.92 µM, the IC50 (134 cancer cell lines; Homo sapiens, BT-20, read-out: IC50 in cell proliferation assay, cell line BT-20) was 12.6 µM and the IC50 (134 cancer cell lines; Homo sapiens, BT-474, read-out: IC50 in cell proliferation assay, cell line BT-474 (ERBB2 amplification)) was greater than 31.6 µM. For the same compound, the IC50 (134 cancer cell lines; Homo sapiens, BT-549, read-out: IC50 in cell proliferation assay, cell line BT-549) was 1.93 µM, the IC50 (134 cancer cell lines; Homo sapiens, BXPC-3, read-out: IC50 in cell proliferation assay, cell line BxPC-3) was 3.46 µM and the IC50 (134 cancer cell lines; Homo sapiens, C-33-A, read-out: IC50 in cell proliferation assay, cell line C-33 A) was 0.981 µM. The IC50 (134 cancer cell lines; Homo sapiens, CAL-27, read-out: IC50 in cell proliferation assay, cell line CAL-27) was 1.95 µM, the IC50 (134 cancer cell lines; Homo sapiens, CCF-STTG1, read-out: IC50 in cell proliferation assay, cell line CCF-STTG1) was 5.77 µM and the IC50 (134 cancer cell lines; Homo sapiens, CCRF-CEM, read-out: IC50 in cell proliferation assay, cell line CCRF-CEM) was 13.3 µM. The IC50 (134 cancer cell lines; Homo sapiens, COLO 205, read-out: IC50 in cell proliferation assay, cell line COLO 205 (BRAF p.V600E)) was 12.9 µM, the IC50 (134 cancer cell lines; Homo sapiens, COLO-829, read-out: IC50 in cell proliferation assay, cell line COLO 829 (BRAF p.V600E)) was 24.7 µM and the IC50 (134 cancer cell lines; Homo sapiens, DLD-1, read-out: IC50 in cell proliferation assay, cell line DLD-1) was 9.98 µM. For the same compound, the IC50 (134 cancer cell lines; Homo sapiens, DU-4475, read-out: IC50 in cell proliferation assay, cell line DU4475 (BRAF p.V600E)) was 11.8 µM, the IC50 (134 cancer cell lines; Homo sapiens, Daoy, read-out: IC50 in cell proliferation assay, cell line Daoy) was 10.1 µM and the IC50 (134 cancer cell lines; Homo sapiens, DoTc2-4510, read-out: IC50 in cell proliferation assay, cell line DoTc2 4510) was 3.5 µM. It also gave an IC50 (134 cancer cell lines; Homo sapiens, EOL1, read-out: IC50 in cell proliferation assay, cell line EoL-1 (FIP1L1-PDGFRA)) of 0.016 µM, an IC50 (134 cancer cell lines; Homo sapiens, FaDu, read-out: IC50 in cell proliferation assay, cell line FaDu) of 3.65 µM and an IC50 (134 cancer cell lines; Homo sapiens, G-361, read-out: IC50 in cell proliferation assay, cell line G-361 (BRAF p.V600E)) of 17.6 µM. The IC50 (134 cancer cell lines; Homo sapiens, HCC827, read-out: IC50 in cell proliferation assay, cell line HCC827 (EGFR exon19del)) was 3.01 µM, the IC50 (134 cancer cell lines; Homo sapiens, HCC4006, read-out: IC50 in cell proliferation assay, cell line HCC4006 (EGFR exon19del)) was 5.93 µM and the IC50 (134 cancer cell lines; Homo sapiens, HCT-15, read-out: IC50 in cell proliferation assay, cell line HCT 15) was 5.73 µM. The IC50 (134 cancer cell lines; Homo sapiens, HCT-116, read-out: IC50 in cell proliferation assay, cell line HCT 116) was 10.3 µM, the IC50 (134 cancer cell lines; Homo sapiens, HEC-1, read-out: IC50 in cell proliferation assay, HEC-1 cell line) was 2.32 µM and the IC50 (134 cancer cell lines; Homo sapiens, HEC-1B, read-out: IC50 in cell proliferation assay, HEC-1-B cell line (EGFR p.A864V)) was 0.608 µM. For the same compound, the IC50 (134 cancer cell lines; Homo sapiens, HL-60, read-out: IC50 in cell proliferation assay, HL-60 cell line) was 25.2 µM, the IC50 (134 cancer cell lines; Homo sapiens, HT, read-out: IC50 in cell proliferation assay, HT cell line) was greater than 31.6 µM and the IC50 (134 cancer cell lines; Homo sapiens, HT-1080, read-out: IC50 in cell proliferation assay, HT-1080 cell line) was 8.1 µM. The IC50 (134 cancer cell lines; Homo sapiens, Hs746T, read-out: IC50 in cell proliferation assay, Hs 746.T cell line (MET exon14skip + amplification)) was 9.64 µM, the IC50 (134 cancer cell lines; Homo sapiens, Hs-578T, read-out: IC50 in cell proliferation assay, Hs 578T cell line) was 1.15 µM and the IC50 (134 cancer cell lines; Homo sapiens, HuTu80, read-out: IC50 in cell proliferation assay, HuTu 80 cell line) was 0.864 µM. The IC50 (134 cancer cell lines; Homo sapiens, J82, read-out: IC50 in cell proliferation assay, J82 cell line) was 1.74 µM, the IC50 (134 cancer cell lines; Homo sapiens, Jurkat E6.1, read-out: IC50 in cell proliferation assay, Jurkat E6.1 cell line) was 11.4 µM and the IC50 (134 cancer cell lines; Homo sapiens, K562, read-out: IC50 in cell proliferation assay, K-562 cell line) was 5.58 µM. The IC50 (134 cancer cell lines; Homo sapiens, KATO III, read-out: IC50 in cell proliferation assay, KATO III cell line (FGFR2 amplification)) was 0.273 µM, the IC50 (134 cancer cell lines; Homo sapiens, KG-1, read-out: IC50 in cell proliferation assay, KG-1 cell line (FGFR1OP2-FGFR1)) was 0.131 µM and the IC50 (134 cancer cell lines; Homo sapiens, KLE, read-out: IC50 in cell proliferation assay, KLE cell line) was 1.82 µM. It also gave an IC50 (134 cancer cell lines; Homo sapiens, KMS-11, read-out: IC50 in cell proliferation assay, KMS-11 cell line (FGFR3 p.Y373C)) of 0.394 µM, an IC50 (134 cancer cell lines; Homo sapiens, KU812, read-out: IC50 in cell proliferation assay, Ku812 cell line) of 3.74 µM and an IC50 (134 cancer cell lines; Homo sapiens, Kasumi 1, read-out: IC50 in cell proliferation assay, Kasumi-1 cell line (KIT p.N822K)) of 0.184 µM. It also gave an IC50 (134 cancer cell lines; Homo sapiens, LC-2-ad, read-out: IC50 in cell proliferation assay, LC-2/ad cell line (CCDC6-RET)) of 0.054 µM, an IC50 (134 cancer cell lines; Homo sapiens, LNCaP-Clone-FGC, read-out: IC50 in cell proliferation assay, LNCaP clone FGC cell line) greater than 31.6 µM and an IC50 (134 cancer cell lines; Homo sapiens, LS174T, read-out: IC50 in cell proliferation assay, LS174T cell line) of 2.29 µM. The IC50 (134 cancer cell lines; Homo sapiens, LS-411N, read-out: IC50 in cell proliferation assay, LS411N cell line (BRAF p.V600E)) was 25.6 µM, the IC50 (134 cancer cell lines; Homo sapiens, LoVo, read-out: IC50 in cell proliferation assay, LoVo cell line) was 1.52 µM and the IC50 (134 cancer cell lines; Homo sapiens, MCF7, read-out: IC50 in cell proliferation assay, MCF-7 cell line) was greater than 31.6 µM. For the same compound, the IC50 (134 cancer cell lines; Homo sapiens, MDA-MB-231, read-out: IC50 in cell proliferation assay, MDA-MB-231 cell line) was 0.555 µM, the IC50 (134 cancer cell lines; Homo sapiens, MDA-MB-453, read-out: IC50 in cell proliferation assay, MDA-MB-453 cell line) was greater than 31.6 µM and the IC50 (134 cancer cell lines; Homo sapiens, MDA-MB-468, read-out: IC50 in cell proliferation assay, MDA-MB-468 cell line) was 8.52 µM. For the same compound, the IC50 (134 cancer cell lines; Homo sapiens, MG-63, read-out: IC50 in cell proliferation assay, MG-63 cell line) was 1.88 µM, the IC50 (134 cancer cell lines; Homo sapiens, MIA PaCa-2, read-out: IC50 in cell proliferation assay, MIA PaCa-2 cell line) was 1.56 µM and the IC50 (134 cancer cell lines; Homo sapiens, MKN-45, read-out: IC50 in cell proliferation assay, MKN45 cell line (MET amplification)) was greater than 31.6 µM. It also gave an IC50 (134 cancer cell lines; Homo sapiens, MOLM-13, read-out: IC50 in cell proliferation assay, MOLM-13 cell line (FLT3 ITD)) of 0.033 µM and an IC50 (134 cancer cell lines; Homo sapiens, MOLT-4, read-out: IC50 in cell proliferation assay, MOLT-4 cell line) of 9.35 µM.
